This is an account of results in patent US20040235071A1, “Methods and compositions for treating cancer using 15986, 2188, 20743, 9148, 9151, 9791, 44252, 14184, 42461, 8204, 7970, 25552, 21657, 26492, 2411, 15088, 1905, 28899, 63380, 33935, 10480, 12686, 25501, 17694, 15701, 53062, 49908, 21612, 38949, 6216, 46863, 9235, 2201, 6985, 9883, 12238, 18057, …” (Millennium Pharmaceuticals, Inc., priority 2002, published 2004).

Assay type in all cases: cell-based, human
One test concerns 15701 mRNA. Description: TaqMan PI3-kinase panel, 15701 mRNA expression. The conditions noted are these: 48 hours. From the text: In an expanded breast cancer tissue panel, 15701 mRNA was expressed at increased levels (2-131 fold) in 14/15 primary breast tumor samples when compared to 4/4 normal breast tissue samples. In a breast cancer cell model panel, 15701 mRNA was expressed at a 4-fold increased level in transformed, activated H-ras-expressing MCF10AT01 cells vs. normal MCF10A cells, and at a 5-fold increased level in transformed, activated H-ras-expressing MCF10AT3B cells when compared to normal MCF10A cells. 15701 mRNA was expressed in many breast tumor cell lines, including MCF-7, T47D, ZR-75 and MDA-MB-468. In the PI3-kinase panel, 15701 mRNA expression was decreased in MDA-MB-468, MCF-7 and LNCaP cells after 48 hours treatment with the PI3-kinase inhibitor LY294002. 15701 mRNA expression in MDA-MB-468 cells decreased 7-fold after 48 hours with LY294002 (115 uM). […]
This example describes the TaqMan™ procedure. The Taqman™ procedure is a quantitative, reverse transcription PCR-based approach for detecting mRNA. […]
(§1) During the PCR reaction, cleavage of the probe separates the reporter dye and the quencher dye, resulting in increased fluorescence of the reporter. Accumulation of PCR products is detected directly by monitoring the increase in fluorescence of the reporter dye. When the probe is intact, the proximity of the reporter dye to the quencher dye results in suppression of the reporter fluorescence. […]
(Real-time PCR tracks product formation cycle by cycle.)

A further test has as its system 39228 mRNA. Description: TaqMan analysis of the Cox inhibitor study, 39228 mRNA expression in HUVEC. The settings on record: 40-100 mM, 10 h, relative to a vehicle (DMSO) control.
From the text: (§2) This example describes the TaqMan™ procedure. The Taqman™ procedure is a quantitative, reverse transcription PCR-based approach for detecting mRNA. The RT-PCR reaction exploits the 5′ nuclease activity of AmpliTaq Gold™ DNA Polymerase to cleave a TaqMan™ probe during PCR. Briefly, cDNA was generated from the samples of interest, e.g., heart, kidney, liver, skeletal muscle, and various vessels, and used as the starting material for PCR amplification. In addition to the 5′ and 3′ gene-specific primers, a gene-specific oligonucleotide probe (complementary to the region being amplified) was included in the reaction (i.e., the Taqman™ probe). […]
as §1

Another test concerns 20743 mRNA. The experiment in a line: Breast cancer cell model panel, 20743 mRNA expression in MCF10A cells. On the procedure: On a breast cancer cell model panel, 20743 mRNA expression in MCF10A cells was increased 4-fold by 8 hrs treatment of 10 ng/ml EGF and was increased 3-fold by 3 hrs treatment with 10 nM IGF1.
as §2, §1

A further test has as its system 2201. The experiment in a line: Breast cancer cell model panel, 2201 in MCF10A cells. The settings on record: 8 hour treatment, 10 ng/ml. As to the method: In a breast cancer cell model panel, 2201 is increased 3-fold after an 8 hour treatment of MCF10A cells with 10 ng/ml EGF.
as §2, §1

Take `O=c1cc(N2CCOCC2)oc2c(-c3ccccc3)cccc12` [LY294002]: the “15701 mRNA expression decrease” value is 16 fold with 15701 mRNA (MCF-7 cells, 30 uM) and 7 fold in the test with 15701 mRNA (MDA-MB-468 cells, 115 uM).
Take `CS(=O)(=O)Nc1ccc([N+](=O)[O-])cc1OC1CCCCC1` [NS398]: in the test with 39228 mRNA, the “39228 mRNA expression” value is reported as “increased”.
On to `CC1=C(CC(=O)O)c2cc(F)ccc2/C1=C\c1ccc([S+](C)[O-])cc1` (stereo not shown) [Sulindac], for which, in the test with 39228 mRNA, the “39228 mRNA expression” value is recorded as “increased”.
In the case of “EGF: epidermal growth factor (NSDSECPLSHDGYCLHDGVCMYIEALDKYACNCVVGYIGERCQYRDLKWWELR; UniProt P01133 971-1023, looked up)”, in the test with 20743 mRNA (8 hrs treatment, 10 ng/ml), the “20743 mRNA expression increase” value is 4 fold. Besides, the 2201 increase in the test with 2201 came out at 3 fold.
Take “IGF1: growth factor used to treat MCF10A cells”: the “20743 mRNA expression increase” value in the test on 20743 mRNA (3 hrs treatment, 10 nM) came out at 3 fold.
